Results as given in patent US8568997B2, “Detection system and uses therefor” (Dimerix Bioscience Pty Ltd., priority 2006, dated 2013).
Ends that are not written are not given here.

How the values were obtained:
[1] = tested on: TRHR with OxR1; test: eBRET between TRHR/Rluc and barr2/Venus with OxR1 as IG3; assay type: cell-based
Description: (§1) Where antagonist was not preincubated, cells were treated with PBS instead for the same amount of time.
(§2) Cells were seeded in 6-well plates at a density of approximately 630,000 cells/well (HEK293FT) or approximately 150,000 cells/well (COS-7) and maintained at 37° C., 5% CO2 in Complete Media (DMEM containing 0.3 mg/ml glutamine, 100 IU/ml penicillin and 100 μg/ml streptomycin (Gibco)) supplemented with 10% fetal calf serum (FCS; Gibco). Transient transfections were carried out 24 h after seeding using GeneJuice (Novagen) or Metafectene (Biontex) according to manufacturer instructions. 24 h post-transfection, cells were washed with PBS, detached using 0.05% trypsin/0.53 mM EDTA, resuspended in HEPES-buffered phenol red free Complete Media containing 5% FCS and added to a poly-L-lysine-coated white microplate (Nunc). 48 h post-transfection, eBRET assays were carried out following pre-incubation of cells with EnduRen™ (Promega) at a final concentration of 30-40 μM, at 37° C., 5% CO2 for 2 h. For original BRET studies, the HEPES-buffered phenol red free Complete Media was replaced with PBS and coelenterazine h (Molecular Probes) added to a final concentration of 5 μM immediately prior to commencing the assay. […] Filtered light emissions were sequentially measured for 3-5 s in each of the ‘donor wavelength window’ (400-475 nm) and ‘acceptor wavelength window’ (>500 nm for EGFP or 520-540 nm for EYFP, Topaz (TYFP) or Venus). The BRET signal observed between interacting proteins is normalized by subtracting the background BRET ratio. […] In the following examples, the first calculation will be used, unless the signal is described as the ligand-induced BRET ratio'.
Cells not pretreated with antagonist were pretreated with PBS instead for the same amount of time.

[2] = tested on: TRHR with OxR2 (thyrotropin releasing hormone receptor/orexin receptor hetero-dimer/-oligomer); test: eBRET/BRET between TRHR/Rluc (or Rluc8) and labelled beta-arrestin with OxR2 co-expressed as IG3; assay type: cell-based
Description: (§3) eBRET measurements at 37 C were carried out on HEK293 cells transiently co-expressing TRHR/Rluc and barr2/Venus with either pcDNA3, orexin receptor 2 (OxR2), CXC chemokine receptor 2 (CXCR2), hemagglutin epitope-tagged melanocortin receptor 3 or 4 (HA-MC3R or HA-MC4R), or dopamine D2 receptor long form (D2LR) or short form (D2SR) following the treatment of each with their respective ligands.
(§4) Phosphate-buffered saline (PBS) was used as a vehicle control.
as §1, §4
Sigmoidal dose response curves were plotted using Prism (GraphPad), either assuming a Hill slope of 1 or allowing for variable slope.
Phosphate-buffered saline (PBS) was added to the first two rows and the last two rows of the 96-well plate (48 wells in total) as a vehicle control. […] Data presented as fluorescence/luminescence.
as §2
In this case, data are shown as ‘fluorescence/luminescence’ being the ratio of light emission through the ‘acceptor wavelength window’ over the 400-475 nm emission for a particular cell sample. Unless otherwise stated, BRET signals were measured in 96-well microplates.

[3] = cited from earlier work
[4] = molecular target: T1, CC chemokine receptor 5 (CCR5) (Homo sapiens, UniProt P51681); test: eBRET between CCR5(5)TYFP and barr2/Rluc without IG3 (pcDNA3); assay type: cell-based; conditions: CCR5(5)TYFP + barr2/Rluc + pcDNA3
T1 construct: expressed in transfected cells; host or cells: HEK293
T1 sequence (P51681 whole entry, species assumed): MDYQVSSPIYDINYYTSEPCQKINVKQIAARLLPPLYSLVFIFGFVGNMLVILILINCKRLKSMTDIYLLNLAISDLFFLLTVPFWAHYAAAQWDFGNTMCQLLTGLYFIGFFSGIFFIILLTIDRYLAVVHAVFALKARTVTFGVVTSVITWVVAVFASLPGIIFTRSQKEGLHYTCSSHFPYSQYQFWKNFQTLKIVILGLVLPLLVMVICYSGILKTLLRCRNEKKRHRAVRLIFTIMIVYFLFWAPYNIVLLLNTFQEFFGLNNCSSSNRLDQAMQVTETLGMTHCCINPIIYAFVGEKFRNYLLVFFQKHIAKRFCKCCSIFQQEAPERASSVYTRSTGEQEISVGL
Description: (§5) Ligand treatments were either monocyte chemoattractant protein 1 (MCP1; CCR2 selective ligand), macrophage inflammatory protein 1b (MIP1b; CCR5 selective ligand), or both MCP1 and MIP1b combined. Phosphate-buffered saline (PBS) was used as a vehicle control.
(§6) Cells were seeded in 6-well plates at a density of approximately 630,000 cells/well (HEK293FT) or approximately 150,000 cells/well (COS-7) and maintained at 37° C., 5% CO2 in Complete Media (DMEM containing 0.3 mg/ml glutamine, 100 IU/ml penicillin and 100 μg/ml streptomycin (Gibco)) supplemented with 10% fetal calf serum (FCS; Gibco). Transient transfections were carried out 24 h after seeding using GeneJuice (Novagen) or Metafectene (Biontex) according to manufacturer instructions. 24 h post-transfection, cells were washed with PBS, detached using 0.05% trypsin/0.53 mM EDTA, resuspended in HEPES-buffered phenol red free Complete Media containing 5% FCS and added to a poly-L-lysine-coated white microplate (Nunc). 48 h post-transfection, eBRET assays were carried out following pre-incubation of cells with EnduRen™ (Promega) at a final concentration of 30-40 μM, at 37° C., 5% CO2 for 2 h. For original BRET studies, the HEPES-buffered phenol red free Complete Media was replaced with PBS and coelenterazine h (Molecular Probes) added to a final concentration of 5 μM immediately prior to commencing the assay. BRET measurements were taken at 37° C. using the Victor Light plate reader with Wallac 1420 software (Perkin-Elmer). Filtered light emissions were sequentially measured for 3-5 s in each of the ‘donor wavelength window’ (400-475 nm) and ‘acceptor wavelength window’ (>500 nm for EGFP or 520-540 nm for EYFP, Topaz (TYFP) or Venus). The BRET signal observed between interacting proteins is normalized by subtracting the background BRET ratio. […]

[5] = molecular target: T2, CCR5 with CCR2 (Homo sapiens, UniProt P41597+P51681); test: eBRET between CCR5(5)TYFP and barr2/Rluc with CCR2 as IG3; assay type: cell-based; conditions: CCR5(5)TYFP + barr2/Rluc + CCR2
T2 construct: expressed in transfected cells; host or cells: HEK293
T2 sequence (P51681 whole entry, species assumed): as above
T2 sequence (P41597 whole entry, species assumed): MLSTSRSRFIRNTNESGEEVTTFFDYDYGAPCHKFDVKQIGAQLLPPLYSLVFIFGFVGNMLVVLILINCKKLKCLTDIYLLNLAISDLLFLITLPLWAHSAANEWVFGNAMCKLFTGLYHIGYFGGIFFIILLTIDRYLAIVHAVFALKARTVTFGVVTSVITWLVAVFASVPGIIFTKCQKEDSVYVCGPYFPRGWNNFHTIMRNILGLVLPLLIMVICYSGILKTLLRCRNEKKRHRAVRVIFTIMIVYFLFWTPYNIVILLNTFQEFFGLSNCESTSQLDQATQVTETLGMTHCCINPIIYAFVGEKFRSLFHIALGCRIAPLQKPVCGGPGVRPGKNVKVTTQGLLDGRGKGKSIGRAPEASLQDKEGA
Description: as §5
BRET measurements at 37 C were carried out on HEK293 cells transiently co-expressing CCR5(5)TYFP (contains a 5 amino acid linker between CCR5 and TYFP), barr2/Rluc and CCR2 treated with increasing doses of monocyte chemoattractant protein 1 (MCP1; CCR2 selective ligand). A sigmoidal dose response curve was plotted using Prism (GraphPad) allowing for variable slope.
Cells were seeded in 6-well plates at a density of approximately 630,000 cells/well (HEK293FT) or approximately 150,000 cells/well (COS-7) and maintained at 37° C., 5% CO2 in Complete Media (DMEM containing 0.3 mg/ml glutamine, 100 IU/ml penicillin and 100 μg/ml streptomycin (Gibco)) supplemented with 10% fetal calf serum (FCS; Gibco). […] BRET measurements were taken at 37° C. using the Victor Light plate reader with Wallac 1420 software (Perkin-Elmer). Filtered light emissions were sequentially measured for 3-5 s in each of the ‘donor wavelength window’ (400-475 nm) and ‘acceptor wavelength window’ (>500 nm for EGFP or 520-540 nm for EYFP, Topaz (TYFP) or Venus). […]

[6] = tested on: TRHR335 (truncated TRHR) with OxR2; test: eBRET/BRET between TRHR335/Rluc and labelled beta-arrestin with OxR2 as IG3; assay type: cell-based; conditions: TRHR335/Rluc + EGFP/barr1 + OxR2
[7] = tested on: TRHR335 with TRHR; test: eBRET between TRHR335/Rluc and EGFP/barr1 with TRHR as IG3; assay type: cell-based
Description: Ligand treatments were either OxA or TRH only.
as §6, with “For original BRET studies, the HEPES-buffered phenol red free Complete Media was replaced with PBS and coelenterazine h (Molecular Probes) added to a final concentration of 5 μM immediately prior to commencing the assay.” left out, “Venus).” for “Venus). The BRET signal observed between interacting proteins is normalized by subtracting the background BRET ratio.”

[8] = tested on: thyrotropin releasing hormone receptor (TRHR); test: eBRET/BRET beta-arrestin recruitment to TRHR/Rluc without IG3 (pcDNA3) in HEK293 cells; assay type: cell-based
Description: as §3
Ligand treatments were either OxA or TRH only or both OxA and TRH combined. Phosphate-buffered saline (PBS) was used as a vehicle control.
Ligand treatments were either OxA or TRH only. Phosphate-buffered saline (PBS) was used as a vehicle control.
BRET measurements at 37 C were carried out on HEK293 cells transiently co-expressing TRHR/Rluc, barr2/Venus and pcDNA3 with increasing doses of TRH. Sigmoidal dose response curves were plotted using Prism (Graph Pad), either assuming a Hill slope of 1 or allowing for variable slope. The EC50 and Hill slope values for the variable slope curve are included in a table in the graph.
TRHR is IG1, Rluc is RC1, barr1 is IG2, EGFP is RC2 and OxR2 is IG3. The same amount of EGFP/barr1 (IG2-RC2) is transfected for each experiment.
Cells were seeded in 6-well plates at a density of approximately 630,000 cells/well (HEK293FT) or approximately 150,000 cells/well (COS-7) and maintained at 37° C., 5% CO2 in Complete Media (DMEM containing 0.3 mg/ml glutamine, 100 IU/ml penicillin and 100 μg/ml streptomycin (Gibco)) supplemented with 10% fetal calf serum (FCS; Gibco). Transient transfections were carried out 24 h after seeding using GeneJuice (Novagen) or Metafectene (Biontex) according to manufacturer instructions. 24 h post-transfection, cells were washed with PBS, detached using 0.05% trypsin/0.53 mM EDTA, resuspended in HEPES-buffered phenol red free Complete Media containing 5% FCS and added to a poly-L-lysine-coated white microplate (Nunc). 48 h post-transfection, eBRET assays were carried out following pre-incubation of cells with EnduRen™ (Promega) at a final concentration of 30-40 μM, at 37° C., 5% CO2 for 2 h. For original BRET studies, the HEPES-buffered phenol red free Complete Media was replaced with PBS and coelenterazine h (Molecular Probes) added to a final concentration of 5 μM immediately prior to commencing the assay. BRET measurements were taken at 37° C. using the Victor Light plate reader with Wallac 1420 software (Perkin-Elmer). Filtered light emissions were sequentially measured for 3-5 s in each of the ‘donor wavelength window’ (400-475 nm) and ‘acceptor wavelength window’ (>500 nm for EGFP or 520-540 nm for EYFP, Topaz (TYFP) or Venus). The BRET signal observed between interacting proteins is normalized by subtracting the background BRET ratio. This can be done in one of two ways (see Pfleger et al. (2006) Cell Signal 18, 1664-1670; Pfleger et al. (2006) Nat Protoc 1, 336-344): 1) the ratio of light emission through the ‘acceptor wavelength window’ over the 400-475 nm emission for a cell sample containing only the donor construct is subtracted from the same ratio for a sample containing the interacting acceptor and donor fusion proteins; 2) the ratio of light emission through the ‘acceptor wavelength window’ over the 400-475 nm emission for a cell sample treated with vehicle is subtracted from the same ratio for a second aliquot of the same cell sample treated with ligand. In the following examples, the first calculation will be used, unless the signal is described as the ligand-induced BRET ratio'.

[9] = 10^−6M antagonist approx. 40 minutes before 10^−6M OxA
[10] = 10^−6M antagonist approx. 40 minutes before 10^−6M TRH and OxA

For `Cc1nc2ccc(NC(=O)Nc3ccnc4cccnc34)cc2o1.Cl` [SB-334867-A, 1-(2-methylbenzoxazol-6-yl)-3-[1,5]naphthyridin-4-yl urea hydrochloride], the “effect of antagonist pretreatment on OxA-induced eBRET signal” value [1, 9] was “reduced”, the “effect of antagonist pretreatment on TRH + OxA-induced eBRET signal” value [1, 10] was “reduced” and the “effect of antagonist pretreatment on OxA-induced eBRET signal” value [2, 9] was “not affected”. For the same molecule, the “effect of antagonist pretreatment on TRH + OxA-induced eBRET signal” value [2, 10] was “did not differ”.

For `CN1C(=O)C[C@@H](C(=O)N[C@@H](Cc2c[nH]cn2)C(=O)N2CCC[C@H]2C(N)=O)NC1=O.O.O.O.O` [TA-0910, (−)-N—[(S)-hexahydro-1-methyl-2,6-dioxo-4-pyrimidinylcarbonyl]-L-histidyl-L-prolinamide tetrahydrate], the “slow wave sleep (SWS) and rapid eye movement (REM) sleep” value ([3]; dose- and time-dependent manner) is listed as “significantly reduced” and the cataplexy ([3]; in most of the animals studied) is listed as “completely suppressed”.

In the case of “MCP1: Monocyte chemoattractant protein 1 (CCR2 selective ligand)”, the eBRET signal [4] is reported as “no eBRET signal”, the “effect of MCP1 addition on MIP1b-induced eBRET signal” value [4] is reported as “made no difference” and the eBRET signal [5] is reported as “able to produce a signal”.

In the case of “OxA: Orexin A, orexin receptor modulator used as IG3 ligand (QPLPDCCRQKTCSCRLYELLHGAGNHAAGILTL; not fully specified; ends and bridges not checked; UniProt O43612 34-66, looked up)”, the “time to eBRET signal plateau” value [6] is reported as “about 20 minutes”, the eBRET signal ([1]; TRHR/Rluc + barr2/Venus + OxR1, agonist 10^−6M) is reported as “small eBRET signal” and the eBRET signal [7] is reported as “no eBRET signal above baseline”. For the same molecule, the “cumulative eBRET signal” value ([8]; TRHR/Rluc + EGFP/barr1, 0 μg OxR2 DNA/well, 10^−6M OxA, 83 mins) was “no signal was recorded”, the “effect of OxA on TRH-induced eBRET signal” value ([8]; TRHR/Rluc + EGFP/barr1 or EGFP/barr2, no OxR2, OxA present with TRH) was “no difference” and the eBRET signal ([8]; TRHR/Rluc + EGFP/barr (barr1, barr2 or barr1R169E), no OxR2) was “No increase in eBRET signal above baseline”. The eBRET signal ([2]; Example 3: TRHR/Rluc + barr2/Venus + OxR2, 10^−6M OxA, PBS pretreatment) was “eBRET signal was observed”, the “time to reach eBRET signal” value ([2]; HEK293, TRHR/Rluc + barr2/Venus + OxR2, ligand 10^−6M) was “up to 30 minutes” and the eBRET signal ([2]; HEK293, TRHR/Rluc + barr2/Venus + OxR2, ligand 10^−6M, 37 C) was 0.07-0.08. For the same molecule, the “time to eBRET signal plateau” value ([2]; TRHR/Rluc + EGFP/barr1R169E + OxR2 (lower signal than EGFP/barr1)) was no more than 20 min, the “time to eBRET signal plateau” value ([2]; TRHR/Rluc + EGFP/barr1 or EGFP/barr2 + HA-OxR2) was “more than 10 minutes” and the “time to eBRET signal plateau” value ([2]; TRHR/Rluc + EGFP/barr1 or EGFP/barr2 + OxR2) was “more than 10 minutes”. For the same molecule, the “dose-response Hill slopes” value ([2]; TRHR/Rluc + barr2/Venus + OxR2, coelenterazine h and EnduRen, FIG. 12) was “greater than 1”.

B1: MIP1b: Macrophage inflammatory protein 1b (CCR5 selective ligand) (protein, UniProt P13236 24-92, looked up)
C-C motif chemokine 4: APMGSDPPTACCFSYTARKLPRNFVVDYYETSSLCSQPAVVFQTKRSKQVCADPSESWVQEYVYDLELN
With B1 the eBRET signal [4] was “robust signal” and the eBRET signal [5] was “produced a signal”.
